Patent US6576271B2, “Method for inhibiting inflammation using bioflavonoids” (Board of Trustees operating Michigan State University, priority 1998, dated 2003)
Like-named read-outs stand apart in the source and are kept apart here.

Assays:
cyclooxygenase = conditions: cited from earlier work; for COX inhibition: literature reports
PGHS-1 (COX-1) = target: T1, PGHS-1 (COX-1) (Ovis aries, UniProt P05979); assay: COX-1 inhibition by flavonoids and isoflavonoids, O2 uptake (Example 5); format: biochemical; conditions: for COX-1 inhibitory activity: FIG. 9, 200 μm concentrations; for PGHS-1 (COX-1) inhibition: at 1000 μM concentrations; for COX-1 inhibitory activity among isoflavonoids: COX-1/COX-2 stated together
T1 construct: purchased Oxford Biomedical Research (Oxford, Mich., USA)
T1 sequence (P05979 25-600): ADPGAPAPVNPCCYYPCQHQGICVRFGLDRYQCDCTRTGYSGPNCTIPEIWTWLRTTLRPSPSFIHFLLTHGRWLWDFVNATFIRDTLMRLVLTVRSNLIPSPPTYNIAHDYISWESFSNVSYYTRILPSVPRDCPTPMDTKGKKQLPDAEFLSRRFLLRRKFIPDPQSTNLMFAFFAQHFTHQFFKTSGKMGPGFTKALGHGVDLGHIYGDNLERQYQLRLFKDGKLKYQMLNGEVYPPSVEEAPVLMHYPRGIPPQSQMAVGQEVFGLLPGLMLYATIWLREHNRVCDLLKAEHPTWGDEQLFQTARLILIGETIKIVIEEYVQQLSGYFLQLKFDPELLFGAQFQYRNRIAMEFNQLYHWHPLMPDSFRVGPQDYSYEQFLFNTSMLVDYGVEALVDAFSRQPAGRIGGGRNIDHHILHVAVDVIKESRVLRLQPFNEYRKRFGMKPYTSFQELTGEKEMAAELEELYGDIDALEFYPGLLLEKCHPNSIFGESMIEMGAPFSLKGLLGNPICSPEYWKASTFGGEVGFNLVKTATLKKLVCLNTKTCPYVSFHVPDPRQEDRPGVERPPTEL
Source text: (§1) This is an antiinflammatory assay for cyclooxygenase inhibition activity of flavonoids and isoflavonoids. Arachidonic acid and microsomal suspensions of PGHS-1 (COX-1) and COX-2 (PGHS-2) were purchased from Oxford Biomedical Research (Oxford, Mich., USA). Genistein, genistin, naringenin, quercetin, 5,8,4′-trihydroxy-6,7-dimethoxyflavone, kaempferol-3-rutinoside and 3′-methoxy kaempferol 3-rutinoside were purified from BALATON tart cherry by HPLC and were identified by ^1H- and ^13C NMR spectral data. Daidzein and formononetin were purchased from Research Plus, Inc. (Bayonne, N.J., USA). […] Luteolin was purchased from Adams Chemical Co. (Round Lake, Ill., USA).
For measuring the COX activity, flavonoids or isoflavonoids were dissolved in DMSO to yield 40 mM stock solution and was further diluted to the desired concentration according to the COX-1/COX-2 inhibitory activity of each compound assayed.
Anti-inflammatory assay: COX activities were measured using microsomal suspensions of PGHS-1 and PGHS-2. Microsomal membranes (5 mg protein/mL in 0.1 M Tris HCl, pH 7.4) were prepared and assayed on the same day. COX-1 and COX-2 assay was performed at 37° C. controlled by a circulation bath (Model-1166, VWR Scientific Products, Chicago, Ill.) by monitoring the rate of O2 uptake using a 5357 Oxygen electrode (INSTECH Laboratory, Plymouth Meeting, Pa.) (Meade, E. A., et al., J. Biol. Chem. 268 6610-6614 (1993)).
Each assay mixture contained 600 μL of 0.1 M Tris-HCl, pH 8.0, 1 mM phenol, 17 μg hemoglobin and 10 μM arachidonate and were mixed in a microchamber (INSTECH Laboratory, Plymouth Meeting, Pa., USA). […] Reactions were initiated by adding […] of microsomal protein (5 μL). Instantaneous inhibition was determined by measuring the cyclooxygenase activity initiated by adding microsomal suspensions of PGHS-1 or PGHS-2 in the assay mixtures containing 10 μM arachidonate and various concentrations of test compounds. […] The kinetics of the enzyme activity was monitored by Biological Oxygen Monitor (YSI model 5300, Yellow Springs Instrument CO., Inc., Yellow Springs, Ohio) and collected in Quicklog Data Acquisition and Control computer software (Strawberry Tree Inc., Sunnyvale, Calif., USA).
The COX-1/COX-2 activity of BALATON cherry bioflavonoids was determined by monitoring the O2 uptake. Reactions were initiated by adding PGHS enzyme preparation. One unit of cyclooxygenase represents oxygenation of 1 nmol of arachidonate/min under the standard assay condition by the COX enzyme. This assay was a modification of the assay reported by DeWitt et al. (Dewitt D. L., et al., J. Biol. Chem. 265 5192-5198 (1990)). […] This methodology can also be used for COX-2 assay as well using COX-2 enzyme. […] COX-1 inhibitory activities of flavonoids, kaempferol, quercetin, luteolin, quercetin 3-rhamnoside, 5,8,4′-trihydroxy-6,7-dimethoxyflavone were compared. Kaempferol 3-rutinoside, 3′-methoxy kaempferol 3-rutinoside and naringenin (FIG. 9), and five isoflavonoids, genistein, genistin, daidzein, formononetin and biochanin A (FIG. 8).
COX-1/COX-2 inhibitory activities of each compound at different concentrations was calculated by comparing the tangent of O2 uptake curves of test compounds with that of blank control. Each assay was repeated 3 times and the IC50 values (50 inhibitory concentrations) were calculated by linear regression analysis.

[1] = Sanchez De Medina et al. 1996; cited from earlier work
PGHS-1 enzyme = target: T2, PGHS-1 enzyme (Ovis aries, UniProt P05979); assay: Cyclooxygenase activity of PGHS-1, initial rate of O2 uptake (Example 4); format: biochemical, ram
T2 construct: a microsomal fraction of ram seminal vesicles containing PGHS-1 enzyme; tissue Oxford Biomedical Research (Oxford, Mich.); host or cells: ram seminal vesicles (microsomal fraction)
T2 sequence (P05979 25-600): T1 sequence (P05979 25-600)

COX-2 (PGHS-2) = target: T3, COX-2 (PGHS-2) (Homo sapiens, UniProt P35354); assay: COX-2 inhibition by flavonoids and isoflavonoids, O2 uptake (Example 5); format: biochemical; conditions: COX-1/COX-2 stated together
T3 construct: purchased Oxford Biomedical Research (Oxford, Mich., USA)
T3 sequence (P35354 18-604): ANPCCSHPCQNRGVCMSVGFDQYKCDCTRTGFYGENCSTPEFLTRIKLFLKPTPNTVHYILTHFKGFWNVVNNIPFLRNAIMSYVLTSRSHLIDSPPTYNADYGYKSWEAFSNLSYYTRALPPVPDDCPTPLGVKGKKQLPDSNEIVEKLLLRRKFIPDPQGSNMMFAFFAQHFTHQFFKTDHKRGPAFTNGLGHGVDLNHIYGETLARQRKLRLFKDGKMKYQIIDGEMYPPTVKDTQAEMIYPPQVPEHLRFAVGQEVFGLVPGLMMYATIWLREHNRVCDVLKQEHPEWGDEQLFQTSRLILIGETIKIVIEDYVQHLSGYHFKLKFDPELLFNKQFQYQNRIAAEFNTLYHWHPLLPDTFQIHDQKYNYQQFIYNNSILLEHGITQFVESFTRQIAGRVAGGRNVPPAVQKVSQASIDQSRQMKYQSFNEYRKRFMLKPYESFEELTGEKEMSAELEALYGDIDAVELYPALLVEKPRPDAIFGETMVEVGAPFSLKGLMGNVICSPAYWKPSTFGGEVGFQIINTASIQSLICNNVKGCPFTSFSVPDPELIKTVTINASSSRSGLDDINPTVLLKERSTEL
Source text: as §1, with “Ill., USA). […]” for “Ill., USA).”
Anti-inflammatory assay: COX activities were measured using microsomal suspensions of PGHS-1 and PGHS-2. […]
Each assay mixture contained 600 μL of 0.1 M Tris-HCl, pH 8.0, 1 mM phenol, 17 μg hemoglobin and 10 μM arachidonate and were mixed in a microchamber (INSTECH Laboratory, Plymouth Meeting, Pa., USA). […] Instantaneous inhibition was determined by measuring the cyclooxygenase activity initiated by adding microsomal suspensions of PGHS-1 or PGHS-2 in the assay mixtures containing 10 μM arachidonate and various concentrations of test compounds. […]
The COX-1/COX-2 activity of BALATON cherry bioflavonoids was determined by monitoring the O2 uptake. […]

[2] = Tsuda et al. 1994; cited from earlier work
[3] = mean of triplicate, FIGS. 10 and 11, read-out: IC50 for inhibition of PGHS-1 enzyme (COX-1)

In the case of `CC(C)=CCc1c(-c2ccc(O)cc2O)oc2c3c(cc(O)c2c1=O)OC(C)(C)C=C3` [morusin], the “COX inhibition” value (cyclooxygenase) is given as “active”.

In the case of `C[C@@H]1O[C@@H](Oc2c(-c3ccc(O)c(O)c3)oc3cc(O)cc(O)c3c2=O)[C@H](O)[C@H](O)[C@H]1O` [quercetin 3-rhamnoside], the “COX-1 inhibitory activity” value (PGHS-1 (COX-1)) is given as “not active” and the “in vivo anti-inflammatory activity” value [1] is given as “reported to have in vivo anti-inflammatory activity”.

Compound `O=c1c(-c2ccc(O)cc2)coc2cc(O)ccc12` [daidzein] has an IC50 (PGHS-1 (COX-1)) of 400 µM.

For `O=c1c(O)c(-c2ccc(O)c(O)c2)oc2cc(O)cc(O)c12` [quercetin], the “PGHS-1 (COX-1) inhibition” value (PGHS-1 (COX-1)) was “not active” and the IC50 (PGHS-1 (COX-1); [3]) was 350 µM.

With `COc1cc(-c2oc3cc(O)cc(O)c3c(=O)c2O[C@@H]2O[C@H](CO[C@@H]3O[C@@H](C)[C@H](O)[C@@H](O)[C@H]3O)[C@@H](O)[C@H](O)[C@H]2O)ccc1O` [3′-methoxy kaempferol 3-rutinoside] the “PGHS-1 (COX-1) inhibition” value (PGHS-1 (COX-1)) was “not active”.

In the case of `O=c1c(O)c(-c2ccccc2)oc2cc(O)cc(O)c12` [galangin], the IC50 (cyclooxygenase; Wurm et al. 1982, read-out: IC50 cyclooxygenase inhibition) is listed as 5.5 µM.

In the case of `O=c1c(O)c(-c2ccc(O)cc2)oc2cc(O)cc(O)c12` [kaempferol], the “COX-1 inhibitory activity” value (PGHS-1 (COX-1)) is reported as “highest COX-1 inhibition” and the IC50 (PGHS-1 (COX-1); [3]) is reported as 180 µM.

With `C[C@@H]1O[C@@H](OC[C@H]2O[C@@H](Oc3cc4c(O)cc(O)cc4[o+]c3-c3ccc(O)c(O)c3)[C@H](O[C@@H]3O[C@H](CO)[C@@H](O)[C@H](O)[C@H]3O)[C@@H](O)[C@@H]2O)[C@H](O)[C@H](O)[C@H]1O` [anthocyanin 1] the “effect on activity of enzyme at higher concentrations” value (PGHS-1 enzyme; higher concentrations than 300-nM, enzyme (PGHS-1/PGHS-2) not specified) was “increased the activity of enzyme”.

For `COc1c(OC)c(O)c2c(=O)cc(-c3ccc(O)cc3)oc2c1O` [5,8,4′-trihydroxy-6,7-dimethoxyflavone], the “COX-1 inhibitory activity” value (PGHS-1 (COX-1)) was “little or no COX-1 inhibition” and the “PGHS-1 (COX-1) inhibition” value (PGHS-1 (COX-1)) was “not active”.

Compound `Oc1cc(O)c2cc(O)c(-c3ccc(O)c(O)c3)[o+]c2c1` [cyanidin] has an IC50 (PGHS-1 enzyme; inhibition of cyclooxygenase activity, FIG. 7) of 90 µM.

Work on `COc1ccc(-c2coc3cc(O)cc(O)c3c2=O)cc1` [biochanin A] yielded an IC50 (PGHS-1 (COX-1); [3]) of 350 µM.

For `O=c1cc(-c2ccccc2)oc2ccccc12` [unsubstituted flavone, flavone], the “COX inhibition” value (cyclooxygenase) is listed as “good COX inhibitor”.

With `O=c1c(-c2ccc(O)cc2)coc2cc(O[C@@H]3O[C@H](CO)[C@@H](O)[C@H](O)[C@H]3O)cc(O)c12` [genistin] the “COX-1 inhibitory activity among isoflavonoids” value (PGHS-1 (COX-1)) was “dramatically decreased” and the “COX-2 inhibitory activity among isoflavonoids” value (COX-2 (PGHS-2)) was “dramatically decreased”.

With `O=C1C[C@@H](c2ccc(O)cc2)Oc2cc(O)cc(O)c21` [naringenin] the “COX-1 inhibitory activity” value (PGHS-1 (COX-1)) was “dramatically decreased”.

With `C[C@H]1O[C@H](OC[C@H]2O[C@@H](Oc3c(-c4ccc(O)cc4)oc4cc(O)cc(O)c4c3=O)[C@H](O)[C@@H](O)[C@@H]2O)[C@@H](O)[C@@H](O)[C@@H]1O` [Kaempferol 3-rutinoside] the “PGHS-1 (COX-1) inhibition” value (PGHS-1 (COX-1)) was “not active”.

`O=c1cc(-c2ccc(O)c(O)c2)oc2cc(O)cc(O)c12` [luteolin] gave an IC50 (PGHS-1 (COX-1); [3]) of 300 µM.

In the case of `OC[C@H]1O[C@@H](Oc2cc3c(O)cc(O)cc3[o+]c2-c2ccc(O)c(O)c2)[C@H](O)[C@@H](O)[C@@H]1O` [cyanidin-3-glucoside], the antioxidant activities [2] is given as “strong antioxidant activities”.

With `O=c1c(-c2ccc(O)cc2)coc2cc(O)cc(O)c12` [genistein] the IC50 (PGHS-1 (COX-1)) was 80 µM, the “COX-1 inhibitory activity among isoflavonoids” value (PGHS-1 (COX-1)) was “highest COX-1/COX-2 inhibitory activity” and the “COX-2 inhibitory activity among isoflavonoids” value (COX-2 (PGHS-2)) was “highest COX-1/COX-2 inhibitory activity”.
